One test concerns C. trachomatis. The following applies: cited from earlier work. An excerpt: Koala cathelicidin PhciCath5 inactivated C. pecorum MarsBar and IPTaLE elementary bodies (EB) and was the only peptide tested that caused biologically and statistically significant reductions in chlamydial inclusions. […] Timing of cathelicidin release from immune and epithelial cells within the host may not enable direct interaction with EB. […] Indeed, proteases secreted by this C. trachomatis neutralise LL-37 anti-chlamydial activity, thereby evading AMP attack and ensuring extracellular EB survival. ...

In another test the test system is S. salivarius. In kind it is cell-based. The procedure:
(§1) Antimicrobial activity was determined against a range of bacteria and fungi from humans and animals using a broth microdilution susceptibility assay according to clinical laboratory standards institute (CLSI) guidelines in 96 well polypropylene plates as described previously. Briefly, cathelicidins were dissolved in DMSO and serially diluted, in cation-adjusted Mueller Hinton Broth (MH II B) with or without 10% lysed horse blood for bacteria, and yeast nitrogen base (YNB) for fungi. Cathelicidin concentrations ranged between 64μg/mL and 0.125μg/mL in a final volume of 100μL. For all bacteria and fungi tested, ampicillin, tetracycline and fluconazole were included as positive controls, in addition to a media-only control and growth control (no inhibitor). Bacteria and fungi were sub-cultured 20–24 hours prior to the test, suspended in saline and their concentration adjusted to a 0.5 McFarland standard. Microorganisms were then diluted to a concentration of 0.5–1.0x10^6 cells/mL, with colony counts performed to confirm microorganism density, and 100μL was dispensed into the wells of the cathelicidin dilution plate. All plates were incubated at 35°C for 20–48 hours depending on the strain. Antimicrobial activity was expressed as minimum inhibitory concentration (MIC), which was defined as the lowest concentration of cathelicidin preventing visible bacterial growth, relative to the no-drug control. The same microdilution susceptibility assay was performed using Mueller Hinton Broth without the addition of the divalent cations calcium and magnesium (MHB), to test the effect of the cations on PhciCath5 activity against the ATCC strains E. coli 25922 and S. aureus 29213.

A further test deals with S. agalactiae ATCC12386. Type of test: cell-based. The procedure: as §1
Another test concerns S. pyogenes ATCC19615. Type of test: cell-based. The procedure:
as §1

In a further test the test system is P. aeruginosa ATCC27853. In kind it is cell-based. The protocol:
as §1

The next test relates to S. pneumoniae ATCC49619. In kind it is cell-based. The procedure: as §1
The next test deals with S. dysgalactiae. In kind it is cell-based. The protocol:
as §1

In a further test the test system is S. lutetiensis. Type of test: cell-based. The protocol: as §1
The test system of a further test is S. oralis. In kind it is cell-based. The procedure:
as §1

In a further test the test system is S. mutans. Type of test: cell-based. The protocol: as §1
The next test has as its system E. coli ATCC25922. In kind it is cell-based. The protocol:
as §1

The next test relates to S. aureus ATCC29213. In kind it is cell-based. The protocol: as §1
The test system of the next test is E. coli (animal isolate). The test is described as follows: Broth microdilution susceptibility assay (MIC). Type of test: cell-based. The note with it: broth microdilution (CLSI), MH II B with magnesium and calcium cations, 35°C, 20–48 hours. The procedure:
as §1
(In general: Broth dilution looks for growth in wells or tubes with falling amounts of substance.)

In another test the test system is S. equi (animal isolate). As to the kind of experiment: Broth microdilution susceptibility assay (MIC). In kind it is cell-based. The following applies: broth microdilution (CLSI), MH II B with magnesium and calcium cations, 35°C, 20–48 hours. The procedure: as §1
Test [1] has as its system L. monocytogenes (animal isolate). As to the kind of experiment: Broth microdilution susceptibility assay (MIC). The note with it: broth microdilution (CLSI), MH II B with magnesium and calcium cations, 35°C, 20–48 hours. In kind it is cell-based. The protocol:
as §1

Another test deals with C. albicans. The test is described as follows: Broth microdilution susceptibility assay (MIC). In kind it is cell-based. The note with it: broth microdilution (CLSI), yeast nitrogen base (YNB) for fungi, 35°C, 20–48 hours. The protocol: as §1
Test [2] deals with S. aureus (animal isolate). As to the kind of experiment: Broth microdilution susceptibility assay (MIC). Type of test: cell-based. The note with it: broth microdilution (CLSI), MH II B with magnesium and calcium cations, 35°C, 20–48 hours. The protocol:
as §1

The subject of test [3] is P. multocida (animal isolate). As to the kind of experiment: Broth microdilution susceptibility assay (MIC). In kind it is cell-based. The note with it: broth microdilution (CLSI), MH II B with magnesium and calcium cations, 35°C, 20–48 hours. The protocol: as §1
Test [4] deals with S. agalactiae (animal isolate). The test is described as follows: Broth microdilution susceptibility assay (MIC). In kind it is cell-based. The note with it: broth microdilution (CLSI), MH II B with magnesium and calcium cations, 35°C, 20–48 hours. The protocol:
as §1

Test [5] deals with K. pneumoniae (animal isolate). The test is described as follows: Broth microdilution susceptibility assay (MIC). In kind it is cell-based. The following applies: broth microdilution (CLSI), MH II B with magnesium and calcium cations, 35°C, 20–48 hours. The protocol: as §1
For test [6], the system named is P. aeruginosa (animal isolate). As to the kind of experiment: Broth microdilution susceptibility assay (MIC). In kind it is cell-based. The following applies: broth microdilution (CLSI), MH II B with magnesium and calcium cations, 35°C, 20–48 hours. The procedure: as §1
A further test relates to C. glabrata. As to the kind of experiment: Broth microdilution susceptibility assay (MIC). In kind it is cell-based. The following applies: broth microdilution (CLSI), yeast nitrogen base (YNB) for fungi, 35°C, 20–48 hours. The procedure: as §1
The test system of test [7] is C. parapsilosis ATCC 22019. The test is described as follows: Broth microdilution susceptibility assay (MIC). Type of test: cell-based, Candida parapsilosis. The following applies: broth microdilution (CLSI), yeast nitrogen base (YNB) for fungi, 35°C, 20–48 hours. The procedure:
as §1, with “All plates were incubated at 35°C for 20–48 hours depending on the strain.” left out, “The same microdilution susceptibility assay was performed using Mueller Hinton Broth without the addition of the divalent cations calcium and magnesium (MHB), to test the effect of the cations on PhciCath5 activity against the ATCC strains E. coli 25922 and S. aureus 29213.” left out

The next test relates to MRSA (animal isolate). Type of test: cell-based, Staphylococcus aureus. The following applies: broth microdilution (CLSI), MH II B with magnesium and calcium cations, 35°C, 20–48 hours. The protocol:
as §1, with “All plates were incubated at 35°C for 20–48 hours depending on the strain.” left out, “The same microdilution susceptibility assay was performed using Mueller Hinton Broth without the addition of the divalent cations calcium and magnesium (MHB), to test the effect of the cations on PhciCath5 activity against the ATCC strains E. coli 25922 and S. aureus 29213.” left out

Another test deals with C. krusei ATCC 6258. As to the kind of experiment: Broth microdilution susceptibility assay (MIC). The note with it: broth microdilution (CLSI), yeast nitrogen base (YNB) for fungi, 35°C, 20–48 hours. Type of test: cell-based, Candida krusei. The procedure: as §1, with “All plates were incubated at 35°C for 20–48 hours depending on the strain.” left out, “The same microdilution susceptibility assay was performed using Mueller Hinton Broth without the addition of the divalent cations calcium and magnesium (MHB), to test the effect of the cations on PhciCath5 activity against the ATCC strains E. coli 25922 and S. aureus 29213.” left out

The next test concerns C. pecorum MarsBar. As to the kind of experiment: Chlamydia pecorum antimicrobial susceptibility (elementary body inactivation, IFU/mL). Type of test: cell-based. The following applies: 125, 250 and 500μg/mL; less than half an order of magnitude difference in chlamydial inclusions compared with the control. The procedure: (§2) C. pecorum IPTaLE and MarsBar were cultured in mouse McCoy B cells, on DMEM supplemented with 10% foetal calf serum (FCS), 0.1mg/mL streptomycin and 0.05mg/mL gentamicin at 37°C in a 5% CO2 atmosphere. Cell lines were routinely tested for mycoplasma contamination every 2 months. Prior to performing antimicrobial susceptibility assays, 96-well plates were seeded with 30,000 host cells per well 24 hours prior to chlamydial infection as described previously. For the antimicrobial assays, koala cathelicidin mature peptides, PhciCath1, 2, 3, 5 and 6, were solubilized in water for cell culture with 0.01% acetic acid, and two-fold dilutions were made in sucrose-phosphate-glutamic acid (SPG) media from 1mg to 250μg/mL, in triplicate. Cathelicidin containing wells were diluted one in two with C. pecorum IPTaLE and MarsBar EBs and incubated for 2 hours at 37°C, giving a final cathelicidin concentration of 500, 250 and 125μg/mL. A negative SPG only control was included. To exclude the possibility of cathelicidin toxicity to McCoy cells, cathelicidin dilutions were removed by centrifugation and C. pecorum EBs re-suspended in DMEM supplemented with 10% FCS, 0.1mg/mL streptomycin and 0.05mg/mL gentamycin. The suspension was used to infect a McCoy B ATCC CRL-1696 cell monolayer at a Multiplicity of Infection (MOI) of 0.6 as described previously. […]

A further test has as its system C. pecorum IPTaLE. Described as above. The note with it: 125, 250 and 500μg/mL; less than half an order of magnitude difference in chlamydial inclusions compared with the control. In kind it is cell-based. The procedure:
as §2

In brackets after ≈: the same amount, converted by molar mass. Like-named read-outs stand apart in the source and are kept apart here. Residues, ends and D or L forms follow the SMILES beside them. No end group written: not given here.

We go through three compounds from paper PMC8046226, “Koala cathelicidin PhciCath5 has antimicrobial activity, including against Chlamydia pecorum” (PLoS ONE, 2021).

As to “PG-1: pig protegrin PG-1, a eutherian cathelicidin (RGGRLCYCRRRFCVCVGR; ends and bridges not checked; cysteine pairing not given here; UniProt P32194 131-148, looked up)”, the “concentration which reduced the infectivity of C. trachomatis” value in the test with C. trachomatis (single round of infection) is 1.25 µg/mL. In addition, the values for the reduction in infectivity in the test with C. trachomatis (treatment of extracellular EBs) and in the test on C. trachomatis (treatment of intracellular C. trachomatis) were ~100% and 67%, respectively.

Turning to `CC[C@H](C)[C@H](NC(=O)CNC(=O)CNC(=O)[C@H](CCCNC(=N)N)NC(=O)[C@@H](N)CCCCN)C(=O)N[C@@H](Cc1c[nH]c2ccccc12)C(=O)N[C@@H](CCCCN)C(=O)N[C@@H](CC(C)C)C(=O)N[C@H](C(=O)N[C@@H](CCCNC(=N)N)C(=O)N1CCC[C@H]1C(=O)N[C@@H](CC(C)C)C(=O)NCC(=O)N[C@@H](CCCNC(=N)N)C(=O)NCC(=O)N[C@@H](C)C(=O)NCC(=O)N[C@@H](CCCNC(=N)N)C(=O)N[C@H](C(=O)N[C@@H](CC(C)C)C(=O)N[C@@H](CCCNC(=N)N)C(=O)N[C@@H](Cc1c[nH]cn1)C(=O)N[C@@H](Cc1ccccc1)C(=O)N[C@@H](Cc1c[nH]cn1)C(=O)N[C@H](C(=O)N[C@@H](CC(=O)O)C(=O)N[C@@H](Cc1ccccc1)C(=O)N[C@@H](CS)C(=O)NCC(=O)N[C@@H](CC(N)=O)C(=O)N[C@@H](CS)C(=O)O)[C@@H](C)CC)[C@@H](C)CC)[C@@H](C)CC` [PhciCath5] (H-KRGGIWKLIRPLGRGAGRILRHFHIDFCGNC-OH), the MIC (as a rule, the smallest concentration in the dilution series that meets the test's criterion for growth inhibition) is 64 µg/mL (≈ 18 µM) in the test with S. salivarius; 64 µg/mL (≈ 18 µM) in the test with S. agalactiae ATCC12386; 64 µg/mL (≈ 18 µM) against S. pyogenes ATCC19615; >64 µg/mL against P. aeruginosa ATCC27853; >64 µg/mL against S. pneumoniae ATCC49619; >64 µg/mL in the test with S. dysgalactiae. In addition, the MIC is >64 µg/mL with S. lutetiensis; >64 µg/mL against S. oralis; >64 µg/mL in the test on S. mutans; 64 µg/mL (≈ 18 µM) with E. coli ATCC25922; 16 µg/mL (≈ 4.51 µM) in the test on S. aureus ATCC29213; 16 µg/mL (≈ 4.51 µM) in the test on E. coli (animal isolate). Further, the MIC with S. equi (animal isolate) is >64 µg/mL; in test [1], 64 µg/mL (≈ 18 µM); in the test with C. albicans, >64 µg/mL; in [2], 8 µg/mL (≈ 2.25 µM); in [3], >64 µg/mL; in [4], 64 µg/mL (≈ 18 µM). Further, the MIC in test [5] was >64 µg/mL; in test [6], >64 µg/mL; against C. glabrata it was >64 µg/mL; in test [7] it was 32 µg/mL (≈ 9.02 µM); in the test with MRSA (animal isolate) it was 16 µg/mL (≈ 4.51 µM); against C. krusei ATCC 6258, 64 µg/mL (≈ 18 µM). In addition, the “MIC (in brackets)” value against E. coli ATCC25922 and in the test with S. aureus ATCC29213 was 11 µg/mL (≈ 3.1 µM) each time.

For `CC[C@H](C)[C@H](NC(=O)[C@H](CCCNC(=N)N)NC(=O)[C@H](CCCCN)NC(=O)[C@H](Cc1ccccc1)NC(=O)[C@H](CCCNC(=N)N)NC(=O)[C@H](CC(C)C)NC(=O)[C@@H]1CCCN1C(=O)[C@H](CCC(=O)O)NC(=O)[C@@H]1CCCN1C(=O)[C@@H]1CCCN1)C(=O)N[C@@H](CCCNC(=N)N)C(=O)N[C@@H](CS)C(=O)N[C@@H](CC(C)C)C(=O)N[C@@H](CC(N)=O)C(=O)NCC(=O)N[C@@H](CCCNC(=N)N)C(=O)N[C@@H](CCCCN)C(=O)N[C@@H](CS)C(=O)N[C@@H](CC(N)=O)C(=O)N[C@@H](Cc1ccc(O)cc1)C(=O)N[C@@H](Cc1c[nH]cn1)C(=O)N[C@@H](CC(N)=O)C(=O)N[C@@H](CC(C)C)C(=O)N[C@@H](CC(C)C)C(=O)N[C@@H](CC(C)C)C(=O)N[C@H](C(=O)N[C@H](C(=O)N[C@H](C(=O)N1CCC[C@H]1C(=O)N[C@@H](Cc1c[nH]cn1)C(=O)N[C@@H](Cc1c[nH]c2ccccc12)C(=O)N[C@@H](CCCNC(=N)N)C(=O)N[C@H](C(=O)N1CCC[C@H]1C(=O)N[C@@H](CCCCN)C(=O)NCC(=O)N[C@@H](CCCCN)C(=O)O)[C@@H](C)CC)C(C)C)[C@@H](C)CC)[C@@H](C)O` [PhciCath3] (H-PPEPLRFKRIRCLNGRKCNYHNLLLTIVPHWRIPKGK-OH), the “activity against C. pecorum MarsBar up to 500ug/mL” value with C. pecorum MarsBar is “ineffective”. The “activity against C. pecorum IPTaLE up to 500ug/mL” value in the test with C. pecorum IPTaLE is listed as “ineffective”.
